Laboratory results published in patent US20140073631A1 (priority 2012, published 2014).
In brackets after ≈: the same amount, converted by molar mass. Entries after “also recorded” stand apart in the source; their conditions may differ. Where two headings read alike, the source gives them in different places.

Columns and labels:
H37Rv Colorado strain [1] = assay: MBC Determination with H37Rv Colorado strain (Table 9); assay type: cell-based; conditions: Mycobacterium tuberculosis; Performed with H37Rv
[2] = test system: Mtb H37Rv (SRI 1345), nonreplicating persistence; assay type: cell-based, Mycobacterium tuberculosis
Mtb H37Rv (SRI 1345) [3] = assay: microbe, parasite or virus in culture; assay type: cell-based, Mycobacterium tuberculosis; conditions: for MIC: Mycobacterium tuberculosis, H37RV, 168 h, read-out: MIC H37Rv
H37Rv Colorado strain [4] = assay: TB MIC Testing (Table 9); assay type: cell-based; conditions: Mycobacterium tuberculosis, read-out: MIC Value, Standard Test Strain H27Rv
Mtb H37Rv (SRI 1345) [5] = assay: microbe, parasite or virus in culture; assay type: cell-based, Mycobacterium tuberculosis
[6] = test system: Mtb H37Rv (SRI 1345) in murine J774 cells; assay type: cell-based, Mycobacterium tuberculosis
[7] = test system: uninfected J774 macrophages; conditions: mouse
TB = assay: DMID TB MIC Results (Table 10); assay type: cell-based; conditions: Mycobacterium tuberculosis; solvent DMSO
HIV-1 = assay: CEM-SS microtiter antiviral XTT cytoprotection assay; assay type: cell-based
Francisella tularensis = assay: microbe, parasite or virus in culture; assay type: cell-based
Bacillus anthracis = assay: microbe, parasite or virus in culture; assay type: cell-based
[8] = test system: Burkholderia pseudomallei; assay: microbe, parasite or virus in culture; assay type: cell-based
Yersinia pestis = assay: microbe, parasite or virus in culture; assay type: cell-based
[9] = test system: fresh human peripheral blood mononuclear cells
Burkholderia mallei = assay: microbe, parasite or virus in culture; assay type: cell-based
several bacteria = assay type: cell-based
[10] = test system: HIV-1 ROJO (low passage clinical strain); assay: PBMC assay, virus production by reverse transcriptase activity; assay type: cell-based; conditions: PBMCs
[11] = mouse, in vivo
E. coli = assay: microbe, parasite or virus in culture; assay type: cell-based; conditions: Escherichia coli, read-out: MIC E. coli
B. anthracis = assay: microbe, parasite or virus in culture; assay type: cell-based; conditions: Bacillus anthracis, read-out: MIC B. anthracis
F. tularensis SCHU S4 = test system: F. tularensis SCHU S4; design: species or system BALB/c mice; conditions: mouse, in vivo
Y. pestis C092 = assay type: in vivo, BALB/c mice
F. tularensis = assay: microbe, parasite or virus in culture; assay type: cell-based; conditions: Francisella tularensis, read-out: MIC F. tularensis (Original Test)
Y. pestis = assay: microbe, parasite or virus in culture; assay type: cell-based; conditions: Yersinia pestis, read-out: MIC Y. pestis
Vero Cells = assay: Cytotoxicity Assay, CellTiter-Glo Luminescent Cell Viability Assay
P. aeruginosa = assay: microbe, parasite or virus in culture; assay type: cell-based; conditions: Pseudomonas aeruginosa, read-out: MIC P. aeruginosa
Plasmodium falciparum = assay: Anti-malaria testing; assay type: cell-based
B. pseudomallei = assay: microbe, parasite or virus in culture; assay type: cell-based; conditions: Burkholderia pseudomallei, read-out: MIC B. pseudomallei
B. mallei = assay: microbe, parasite or virus in culture; assay type: cell-based; conditions: Burkholderia mallei, read-out: MIC B. mallei

CO[C@H]1/C=C/O[C@@]2(C)Oc3c(C)c(O)c4c(O)c(c(/C=N/N5CCN(C)CC5)c(O)c4c3C2=O)NC(=O)/C(C)=C\C=C\[C@H](C)[C@H](O)[C@@H](C)[C@@H](O)[C@@H](C)[C@H](OC(C)=O)[C@@H]1C [Rifampin, rifampin, reference compound]
MBC (H37Rv Colorado strain [1]): 0.0063 µg/mL (≈ 0.00766 µM)
LORA [2]: 1.56 µg/mL
% inhibition at the MIC concentration (Mtb H37Rv (SRI 1345) [3]): 81%
MIC (Mtb H37Rv (SRI 1345) [3]): 0.049 µg/mL (≈ 0.0595 µM)
MIC (H37Rv Colorado strain [4]): 0.0031 µg/mL (≈ 0.00377 µM)
Colony Count (Mtb H37Rv (SRI 1345) [5]): 23 CFU
MBC (Mtb H37Rv (SRI 1345) [5]; Mycobacterium tuberculosis, H37RV): 3.12 µg/mL (≈ 3.8 µM)
Microphage log reduction (high conc.) [6]: 2.00
Microphage log reduction (low conc.) [6]: 0.76
Microphage log reduction (mid conc.) [6]: 1.11
MTT % viability (high conc.) [7]: 86%
MTT % viability (low conc.) [7]: 97%
MTT % viability (mid conc.) [7]: 96%
MIC (TB): 0.006 µg/mL (≈ 0.00729 µM)

N=C(NCCCCCCNC(=N)NC(=N)N1CCN(c2cc3c(cc2F)c(=O)c(C(=O)O)cn3C2CC2)CC1)NC(=N)N1CCN(c2cc3c(cc2F)c(=O)c(C(=O)O)cn3C2CC2)CC1 [BVS-10A]
% RED. IN VIRAL CPC (HIV-1; 0.00032 nG/mL): 3%
% RED. IN VIRAL CPC (HIV-1; 0.001 nG/mL): 4%
% RED. IN VIRAL CPC (HIV-1; 0.0032 nG/mL): 1%
% RED. IN VIRAL CPC (HIV-1; 0.01 nG/mL): 4%
% RED. IN VIRAL CPC (HIV-1; 0.032 nG/mL): 7%
% RED. IN VIRAL CPC (HIV-1; 0.1 nG/mL): 2%
% RED. IN VIRAL CPC (HIV-1; 0.32 nG/mL): 4%
% RED. IN VIRAL CPC (HIV-1; 1 nG/mL): 9%
% RED. IN VIRAL CPC (HIV-1; 3.2 nG/mL): 2%
% RED. IN VIRAL CPC (HIV-1; 10 nG/mL): 11%
% RED. IN VIRAL CPC (HIV-1; 32 nG/mL): 100%
% RED. IN VIRAL CPC (HIV-1; 100 nG/mL): 100%
LORA [2]: >6.25 µg/mL
MIC Range (Francisella tularensis): <0.03125 to 0.25 µg/mL
MIC50 (Francisella tularensis; Francisella tularensis): 0.0625 µg/mL (≈ 0.0685 µM)
% inhibition at the MIC concentration (Mtb H37Rv (SRI 1345) [3]): 66%
MIC (Mtb H37Rv (SRI 1345) [3]): 6.25 µg/mL (≈ 6.85 µM)
MIC Range (Bacillus anthracis): 0.25 to 2 µg/mL
MIC50 (Bacillus anthracis; Bacillus anthracis): 0.5 µg/mL (≈ 0.548 µM)
MIC Range [8]: 4 to 64 µg/mL
isolates with MICs<16 μg/ml [8]: 30%
MIC50 ([8]; Burkholderia pseudomallei): 32 µg/mL (≈ 35 µM)
MIC90 ([8]; Burkholderia pseudomallei): 64 µg/mL (≈ 70.1 µM)
MIC Range (Yersinia pestis): 0.125 to 0.5 µg/mL
MIC50 (Yersinia pestis; Yersinia pestis): 0.25 µg/mL (≈ 0.274 µM)
TOXICITY VALUES (XTT) % CC ([9]; 0.01 μg/ml): 103.2%
TOXICITY VALUES (XTT) % CC ([9]; 0.032 μg/ml): 103.6%
TOXICITY VALUES (XTT) % CC ([9]; 0.1 μg/ml): 97.1%
TOXICITY VALUES (XTT) % CC ([9]; 0.32 μg/ml): 100.9%
TOXICITY VALUES (XTT) % CC ([9]; 1 μg/ml): 96.2%
TOXICITY VALUES (XTT) % CC ([9]; 3.2 μg/ml): 103.5%
TOXICITY VALUES (XTT) % CC ([9]; 10 μg/ml): 108.3%
TOXICITY VALUES (XTT) % CC ([9]; 32 μg/ml): 97.3%
toxicity in PBMCs ([9]; 100 μg/mL): Toxicity was detected
TOXICITY VALUES (XTT) % CC ([9]; 100 μg/ml): 51.2%
% CELL VIABILITY (CEM-SS cells; 0.00032 nG/mL): 100%
% CELL VIABILITY (CEM-SS cells; 0.001 nG/mL): 100%
% CELL VIABILITY (CEM-SS cells; 0.0032 nG/mL): 100%
% CELL VIABILITY (CEM-SS cells; 0.01 nG/mL): 100%
% CELL VIABILITY (CEM-SS cells; 0.032 nG/mL): 100%
% CELL VIABILITY (CEM-SS cells; 0.1 nG/mL): 100%
% CELL VIABILITY (CEM-SS cells; 0.32 nG/mL): 100%
% CELL VIABILITY (CEM-SS cells; 1 nG/mL): 100%
% CELL VIABILITY (CEM-SS cells; 3.2 nG/mL): 100%
% CELL VIABILITY (CEM-SS cells; 10 nG/mL): 100%
% CELL VIABILITY (CEM-SS cells; 32 nG/mL): 100%
% CELL VIABILITY (CEM-SS cells; 100 nG/mL): 100%
TC 25% (CEM-SS cells; human): >100.00 UG/mL
TC 50% (CEM-SS cells; human): >100.00 UG/mL
TC 95% (CEM-SS cells; human): >100.00 UG/mL
MIC Range (Burkholderia mallei): 0.25 to 8 µg/mL
MIC50 (Burkholderia mallei; Burkholderia mallei): 1 µg/mL (≈ 1.1 µM)
MIC90 (Burkholderia mallei; Burkholderia mallei): ≥ 4 µg/mL
Colony Count (Mtb H37Rv (SRI 1345) [5]): TNTC
minimum inhibitory concentrations (MIC), range over strains (several bacteria): <0.128 to 12.8 µg/mL
concentrations at which active [10]: greater than 3.2 μg/mL
Microphage log reduction (low conc.) [6]: 1.14
Microphage log reduction (mid conc.) [6]: 0.80
MTT % viability (high conc.) [7]: 73%
MTT % viability (low conc.) [7]: >100%
MTT % viability (mid conc.) [7]: 63%

C[C@@H]1COc2c(N3CCN(C(=N)NC(=N)N4CCN(c5c(F)cc6c(=O)c(C(=O)O)cn7c6c5OC[C@@H]7C)CC4)CC3)c(F)cc3c(=O)c(C(=O)O)cn1c23 [BVS-76D (XVII)]
symptoms in treated animals incl. unchallenged toxicity group [11]: some inflammation in the urinary, vaginal and rectal areas
MBC (H37Rv Colorado strain [1]): 0.625 µg/mL (≈ 0.82 µM)
MIC90 (Francisella tularensis; Francisella tularensis): < 4 µg/mL
MIC (E. coli): < 0.06 µg/mL
MIC (B. anthracis): < 0.06 µg/mL
MIC90 (Bacillus anthracis; Bacillus anthracis): ≤ 0.25 µg/mL
life span of the mice (average) (F. tularensis SCHU S4): 10 days
outcome by day 13 (F. tularensis SCHU S4): all the mice in test Groups 3, 4 and 5 were dead
protection of infected mice (F. tularensis SCHU S4): partial protection; also recorded: not significantly effective
MIC (H37Rv Colorado strain [4]): 0.312 to 0.625 µg/mL (≈ 0.41 to 0.82 µM)
MIC90 (Yersinia pestis; Yersinia pestis): < 4 µg/mL
survival (Y. pestis C092; 21 days): 100%
protection of infected mice (Y. pestis C092; mouse, in vivo, 5 mg/kg/day): complete protection
MIC (F. tularensis): < 0.06 µg/mL
MIC (Y. pestis): < 0.06 µg/mL
% Viability (Vero Cells; 0.01 μg/ml): 119%
% Viability (Vero Cells; 0.02 μg/ml): 105%
% Viability (Vero Cells; 5 μg/ml): 113%
% Viability (Vero Cells; 10 μg/ml): 100%
% Viability (Vero Cells; 20 μg/ml, vs […] DMSO controls): 96%
MIC (P. aeruginosa): 0.25 µg/mL (≈ 0.328 µM)
MIC90 (Burkholderia mallei; Burkholderia mallei): < 4 µg/mL
IC50 (Plasmodium falciparum; average of Test 1 and Test 2, read-out: Average IC50): 2720 nM
IC50 (Plasmodium falciparum; read-out: IC50 Test 1): 4020 nM
IC50 (Plasmodium falciparum; read-out: IC50 Test 2): 1430 nM
MIC (B. pseudomallei): 2 to 4 µg/mL (≈ 2.63 to 5.25 µM)
MIC (B. mallei): 1 µg/mL (≈ 1.31 µM)
IC50 (TB): 1.1 µg/mL (≈ 1.44 µM)
IC90 (TB): 1.19 µg/mL (≈ 1.56 µM)
MIC (TB): 1.25 µg/mL (≈ 1.64 µM)
